{
  "source": "patent US11261160B2",
  "about": "“Process for the preparation of N-(4-(6,7-dimethoxyquinolin-4-yloxy)phenyl)-N′-(4-fluorophenyl)cyclopropane-1, 1-dicarboxamide, (2S)-hydroxybutanedioate and its polymorphs thereof” (MSN LABORATORIES PRIVATE LIMITED, R&D CENTER, priority 2016, dated 2022)",
  "key": {"[1]": {"test": "Hygroscopic stability for 24 hours (P-XRD)", "type": "physicochemical", "conditions": "kept in the desiccator for 24 hours; 3.0 gms sample", "procedure": "Hygroscopic Stability for 24 Hours:\nSamples of crystalline form-S of Cabozantinib (S)-malate (3.0 gms) is kept in the desiccator for 24 hours.\n(§1) PXRD analysis of compounds produced by the present invention were carried out using BRUKER IDS ADVANCE/AXS X-Ray diffractometer using Cu Kα radiation of wavelength 1.5406 A° and continuous scan speed of 0.03°/min."}, "[2]": {"test": "Thermal stability at 60° C. (P-XRD)", "type": "physicochemical", "conditions": "heating in a vacuum dryer at 60° C. for 24 hours; 3.0 gms sample", "procedure": "Thermal Stability at 60° C.:\nSamples of crystalline form-S of Cabozantinib (S)-malate (3.0 gms) is subjected to heating in a vacuum dryer at 60° C. for 24 hours.\nas §1"}},
  "data": [
    {"smiles": "COc1cc2nccc(Oc3ccc(NC(=O)C4(C(=O)Nc5ccc(F)cc5)CC4)cc3)c2cc1OC.O=C(O)C[C@H](O)C(=O)O", "note": "[N-(4-(6,7-dimethoxyquinolin-4-yloxy)phenyl)-N′-(4-fluorophenyl)cyclopropane-1,1-dicarboxamide (S)-malate]", "values": [
      {"measurement": "Hygroscopic stability for 24 hours by P-XRD pattern", "setting": "[1]", "result": "stable"},
      {"measurement": "Thermal stability at 60° C. by P-XRD pattern", "setting": "[2]", "result": "stable"}
    ]}
  ]
}
